Some test systems named below: 786-0; A549; TK-10; HCT-116; MDA-MB-231; NCI-H23; OVCAR-8; MOLT-4; RXF 393; A498; NCI-H226; HCT-15; EKVX; HOP-92; OVCAR-3; HCC 2998; SK-OV-3; SK-MEL-28; NCI-H460; UO-31.
Holding throughout (assay): inhibition of tumour cell growth, NCI panel, 48 h

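Method: 48-hour compound exposure of cells in 96-well plates, five concentrations, linear interpolation of endpoints. GI50 = concentration required for 50% inhibition of growth.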 Active and inactive are the calls of the source. No stated cut-off is given here; in the data, active = GI50 up to about 1.1 µM and inactive = higher.

Turning to `COC12C=CC(C=C1C#N)CC2.COC12C=CC(CC1)CC2=O` (configuration not stated), the GI50 with 786-0, with A549, in the assay with TK-10, with HCT-116, with MDA-MB-231 and in the assay on NCI-H23 was > 100 µM (inactive) throughout. Further, the GI50 in the assay with OVCAR-8 was > 100 µM (inactive); with MOLT-4, > 100 µM (inactive); in the assay with RXF 393 it was > 100 µM (inactive); with A498, > 100 µM (inactive); in the assay with NCI-H226, > 100 µM (inactive); with HCT-15, greater than 100 µM. The GI50 in the assay with EKVX, in the assay with HOP-92, in the assay on OVCAR-3, in the assay with HCC 2998, in the assay with SK-OV-3 and in the assay on SK-MEL-28 was > 100 µM (inactive) throughout. Further, the GI50 with NCI-H460 and in the assay on UO-31 was > 100 µM (inactive) each time.

As for `O=S(=O)(c1ccccc1)c1cccc2c1NCCC2`, the GI50 in the assay with 786-0 is 78.7 µM (inactive); with A549 it was 33.3 µM (inactive); in the assay with TK-10, 64.9 µM (inactive); in the assay with HCT-116 it was 42.5 µM (inactive); in the assay on MDA-MB-231 it was 39.6 µM (inactive); in the assay with OVCAR-8, 58.6 µM (inactive). Besides, the GI50 is 28.7 µM (inactive) in the assay on MOLT-4; 27.7 µM (inactive) with RXF 393; > 100 µM (inactive) in the assay with A498; 49.9 µM (inactive) with NCI-H226; 32.4 µM with HCT-15; 58.3 µM (inactive) in the assay on EKVX. For the same compound, the GI50 in the assay with HOP-92 is 28.8 µM (inactive); in the assay on OVCAR-3 it was 50.7 µM (inactive); in the assay with HCC 2998, 13.5 µM (inactive); in the assay on SK-OV-3 it was > 10 µM (inactive); in the assay with SK-MEL-28, 36.7 µM (inactive); in the assay with NCI-H460 it was 43.4 µM (inactive). The GI50 with UO-31 was 27.5 µM (inactive).

With `COC(=O)c1sc(C(=O)OC)c2c1CSC2`, the GI50 with 786-0 is 53.6 µM (inactive); in the assay on A549, > 100 µM (inactive); in the assay with TK-10, > 100 µM (inactive); in the assay with HCT-116 it was 97.9 µM (inactive); with MDA-MB-231, > 100 µM (inactive); in the assay with NCI-H23 it was > 72.1 µM (inactive). The GI50 in the assay on OVCAR-8 was 79.6 µM (inactive); with MOLT-4, > 100 µM (inactive); in the assay with RXF 393, 47.5 µM (inactive); in the assay with A498, > 91 µM (inactive); in the assay on NCI-H226 it was > 70.6 µM (inactive); in the assay on HCT-15, greater than 91.2 µM. In addition, the GI50 in the assay on EKVX was > 100 µM (inactive); in the assay on HOP-92, 32 µM (inactive); in the assay on OVCAR-3, > 100 µM (inactive); in the assay with HCC 2998, > 100 µM (inactive); in the assay with SK-OV-3, > 100 µM (inactive); in the assay on SK-MEL-28, > 100 µM (inactive). Also, the GI50 with NCI-H460 and in the assay on UO-31 was > 100 µM (inactive) each time.

Turning to `COC(=O)CCc1ccc2c(c1)CC1(Cc3ccccc3C1)C2`, the GI50 is > 100 µM (inactive) in the assay on 786-0; 98.4 µM (inactive) with A549; > 100 µM (inactive) with TK-10; 95.1 µM (inactive) in the assay on HCT-116; > 100 µM (inactive) in the assay on MDA-MB-231; > 100 µM (inactive) in the assay with NCI-H23. The GI50 in the assay with OVCAR-8 is > 100 µM (inactive); in the assay on MOLT-4, 77.1 µM (inactive); with RXF 393 it was > 100 µM (inactive); with A498, > 100 µM (inactive); in the assay on NCI-H226 it was > 100 µM (inactive); in the assay on HCT-15 it was greater than 100 µM. Further, the GI50 in the assay with EKVX was > 100 µM (inactive); in the assay on HOP-92, 97.5 µM (inactive); in the assay with OVCAR-3, > 100 µM (inactive); with HCC 2998, > 100 µM (inactive); in the assay on SK-OV-3, > 100 µM (inactive); with UO-31 it was > 100 µM (inactive).

Take `CCNCC(=O)Nc1ccc2c(c1)C(=O)c1ccc(NC(=O)CNCC)cc1C2=O`: the GI50 in the assay with 786-0 was 2.14 µM (inactive); in the assay on A549, 2.41 µM (inactive); in the assay on TK-10, 5.22 µM (inactive); in the assay with HCT-116, 1.44 µM (inactive); with MDA-MB-231, 3.3 µM (inactive); in the assay with NCI-H23 it was 3.43 µM (inactive). Moreover, the GI50 was 2.18 µM (inactive) in the assay on OVCAR-8; 2.53 µM (inactive) in the assay with RXF 393; 2.62 µM (inactive) in the assay with A498; 5.51 µM (inactive) in the assay on NCI-H226; 1.93 µM in the assay on HCT-15; 4.93 µM (inactive) in the assay on EKVX. Further, the GI50 was 3.38 µM (inactive) in the assay on HOP-92; 2.59 µM (inactive) in the assay on OVCAR-3; 1.7 µM (inactive) in the assay with HCC 2998; 2.76 µM (inactive) with SK-OV-3; 5.61 µM (inactive) with SK-MEL-28; 1.49 µM (inactive) in the assay with NCI-H460. Also, in the assay on UO-31, the GI50 is 3.21 µM (inactive).

For `C[C@]12CC(c3ccccc3O1)C(C(=O)Nc1nc(C34CC5CC(CC(C5)C3)C4)cs1)C(=O)N2` (some centres not stated), the GI50 was > 100 µM (inactive) in the assay with 786-0; > 100 µM (inactive) with A549; 98.9 µM (inactive) in the assay on HCT-116; > 100 µM (inactive) in the assay on MDA-MB-231; > 100 µM (inactive) with NCI-H23; > 100 µM (inactive) with OVCAR-8. The GI50 is > 100 µM (inactive) in the assay with MOLT-4; > 100 µM (inactive) in the assay with RXF 393; > 100 µM (inactive) with A498; > 100 µM (inactive) in the assay with NCI-H226; greater than 100 µM with HCT-15; > 100 µM (inactive) in the assay with EKVX. Further, the GI50 in the assay with HOP-92, in the assay with OVCAR-3, in the assay on HCC 2998, in the assay on SK-OV-3, in the assay with SK-MEL-28 and with NCI-H460 was > 100 µM (inactive) in each case.

As for `N=C(N)Nc1ccc(CC(N)C(=O)O)cc1` (configuration not stated), the GI50 with 786-0, in the assay with A549, in the assay on TK-10, in the assay on HCT-116, in the assay with MDA-MB-231 and in the assay with NCI-H23 was > 12.5 µM (inactive) throughout. Further, the GI50 with OVCAR-8 was > 12.5 µM (inactive); in the assay with MOLT-4, > 12.5 µM (inactive); with RXF 393 it was > 12.5 µM (inactive); in the assay with A498, > 12.5 µM (inactive); with NCI-H226, > 12.5 µM (inactive); in the assay on HCT-15 it was greater than 12.5 µM. The GI50 in the assay with EKVX, with HOP-92, in the assay on OVCAR-3, in the assay with HCC 2998, with SK-OV-3 and in the assay on SK-MEL-28 was > 12.5 µM (inactive) in each case. Moreover, in the assay with UO-31, the GI50 was > 12.5 µM (inactive).

Consider `CC(=O)c1c(C)cc2cccc(OC3OC(CO)C(O)C(O)C3O)c2c1O.CC1OC(O)C(O)C(O)C1O` (configuration not stated), for which the GI50 in the assay on 786-0, in the assay on A549, with TK-10, in the assay on HCT-116, in the assay on MDA-MB-231 and with NCI-H23 was > 100 µM (inactive) in each case. The GI50 with OVCAR-8 was > 100 µM (inactive); in the assay on MOLT-4, > 100 µM (inactive); in the assay with RXF 393, > 100 µM (inactive); in the assay with A498 it was > 100 µM (inactive); in the assay with NCI-H226, > 100 µM (inactive); with HCT-15, greater than 100 µM. Besides, the GI50 in the assay with EKVX, with HOP-92, in the assay on OVCAR-3, in the assay with HCC 2998, with SK-OV-3 and with SK-MEL-28 was > 100 µM (inactive) throughout. Moreover, the GI50 in the assay with NCI-H460 was > 100 µM (inactive).

The values above are taken from ChEMBL document CHEMBL1201862, “PubChem BioAssay data set” (2004).
